pIC50: −log10 of the molar value.
System: 855422-203-R-J1-PDC spheroids with HUVEC/MSC, viability
Experiment: Anticancer human tumor 855422-203-R-J1-PDC patient-derived bladder carcinoma cell line growth inhibition [PI3K]
Settings: for pIC50: curve of first compound; for viability, T/C: stronger effect = lower value
Description: Combinatorial screen of targeted agents with the PI3K inhibitors inavolisib, alpelisib, duvelisib, and copanlisib in multi-cell type tumor spheroids
A high-throughput screen of multi-cell type tumor spheroids was designed to identify active combinations of targeted small molecules and PI3K pathway inhibitors. Complex spheroids include a stromal component modeled by human endothelial cells (HUVEC) and fibroblasts modeled by human mesenchymal stem cells (MSCs). The concentration ranges selected for each drug and investigational agent were based upon clinically achievable concentrations if the clinical Cmax of the agent was known.
Compounds. The drugs and investigational agents: inavolisib (NSC800729), alpelisib (NSC765974), duvelisib (NSC772469), copanlisib (NSC816437), ipatasertib (NSC767898), afuresertib (NSC778305), talazoparib (NSC767125), sapanisertib (NSC764658), selumetinib (NSC741078), tovorafenib (DAY101, NSC766906), vemurafenib (NSC761431), ravoxertinib (NSC781343), sotorasib (NSC818433), MRTX1133 (NSC 836407), abemaciclib (NSC 768073), palbociclib (NSC758247), venetoclax (NSC 766270), SY5609 (NSC837396), enzalutamide (NSC755605), and darolutamide (NSC825331), were obtained from the National Cancer Institute (NCI) Developmental Therapeutics Program Chemical Repository. The FDA-approved anticancer drug set is available from the NCI Developmental Therapeutics Program. […] The stock solutions were prepared in dimethyl sulfoxide (DMSO, Sigma-Aldrich, St. Louis, MO, cat. D2650) at 800-fold the tested concentration and stored at -70 degrees C prior to their use. All drugs and investigational agents were tested over a range starting from a high concentration at or near the clinical Cmax and decreasing in half-log increments. If the clinical Cmax for an agent had not been determined, the highest concentration tested was 10 microM.
Cell Culture. All cells were maintained in an incubator at 37 degrees C and 5% CO2 with 95% humidity. The PDC lines were cultured according to standard operating procedures established by the NCI PDMR (https://pdmr.cancer.gov/sops/default.htm). All PDCs were thawed and cultured in Matrigel-coated flasks prepared with a working solution of 1X Ham's F-12 nutrient mix, without supplementation (Invitrogen, Waltham, MA, cat. 11765054), 100 U/mL penicillin-streptomycin (Invitrogen, cat. 15140122), and 2.5% Matrigel (Corning Inc., Corning, NY, cat. 354248) for the first three passages. The 354836-022-R-J1-PDC, 475296-252-R-J1-PDC, and 997726-040-R-J2-PDC lines were cultured in 6A media, which includes advanced DMEM/F-12 (Thermo Fisher Scientific, cat. 12634028), 10 mM HEPES (Thermo Fisher Scientific, cat. 15630080), 1X GlutaMAX supplement (Thermo Fisher Scientific, cat. 35050061), 0.1 mg/mL primocin (InvivoGen, San Diego, CA, cat. ant-pm-2), 10% defined fetal bovine serum, heat inactivated (HyClone Laboratories Inc., Logan, UT, cat. SH30070.03HI), 50% L-WRN conditioned media (ATCC, cat. CRL-3276), 1.25 mM N-Acetyl-L-cysteine (Sigma-Aldrich, cat. A9165), 10 mM nicotinamide (Sigma-Aldrich, cat. N0636), 1X B-27 supplement (Thermo Fisher Scientific, cat. 17504044), 1X N-2 supplement (Thermo Fisher Scientific, cat. 17502048), and 10 microM Y-27632 dihydrochloride (Tocris Bioscience, Bristol, United Kingdom, cat. 1254). The 624824-186-R-J2-PDC line was cultured in 6C/Colon 1B media, which includes all 6A media components plus 50 ng/mL human EGF recombinant protein (Thermo Fisher Scientific, cat. PHG0311). […]
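Also: agents incubated with spheroids for one week before read-out.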
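For viability, T/C in this document: 100% = DMSO vehicle-treated control wells.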

Structure (SMILES): CC(C)NCC(C(=O)N1CCN(c2ncnc3c2C(C)CC3O)CC1)c1ccc(Cl)cc1 (configuration not stated) + CC(Nc1ccc2c(c1)OCCn1cc(N3C(=O)OCC3C(F)F)nc1-2)C(N)=O
- pIC50 (second compound 0.00316 µM): 6.08
- pIC50 (second compound 0.01 µM): 5.95
- pIC50 (second compound 0.0316 µM): 5.94
- pIC50 (second compound 0.1 µM): 6.17
- pIC50 (second compound 0.316 µM): > 7.50
- pIC50 (second compound 1 µM): > 7.50
- viability, T/C (second compound 0.00316 µM, first compound 0.0316 µM): 107%
- viability, T/C (second compound 0.00316 µM, first compound 0.1 µM): 65.8%
- viability, T/C (second compound 0.00316 µM, first compound 0.316 µM): 70.4%
- viability, T/C (second compound 0.00316 µM, first compound 1 µM): 45.3%
- viability, T/C (second compound 0.00316 µM, first compound 3.16 µM): 38.7%
- viability, T/C (second compound 0.00316 µM, first compound 10 µM): 20.4%
- viability, T/C (second compound 0.01 µM, first compound 0.0316 µM): 82.2%
- viability, T/C (second compound 0.01 µM, first compound 0.1 µM): 65.8%
- viability, T/C (second compound 0.01 µM, first compound 0.316 µM): 71.3%
- viability, T/C (second compound 0.01 µM, first compound 1 µM): 51.5%
- viability, T/C (second compound 0.01 µM, first compound 3.16 µM): 32.2%
- viability, T/C (second compound 0.01 µM, first compound 10 µM): 18.4%
- viability, T/C (second compound 0.0316 µM, first compound 0.0316 µM): 66.6%
- viability, T/C (second compound 0.0316 µM, first compound 0.1 µM): 70%
- viability, T/C (second compound 0.0316 µM, first compound 0.316 µM): 67.7%
- viability, T/C (second compound 0.0316 µM, first compound 1 µM): 49.1%
- viability, T/C (second compound 0.0316 µM, first compound 3.16 µM): 34.8%
- viability, T/C (second compound 0.0316 µM, first compound 10 µM): 16.4%
- viability, T/C (second compound 0.1 µM, first compound 0.0316 µM): 65.8%
- viability, T/C (second compound 0.1 µM, first compound 0.1 µM): 63.6%
- viability, T/C (second compound 0.1 µM, first compound 0.316 µM): 61.9%
- viability, T/C (second compound 0.1 µM, first compound 1 µM): 42.8%
- viability, T/C (second compound 0.1 µM, first compound 3.16 µM): 27.2%
- viability, T/C (second compound 0.1 µM, first compound 10 µM): 12.4%
- viability, T/C (second compound 0.316 µM, first compound 0.0316 µM): 47.6%
- viability, T/C (second compound 0.316 µM, first compound 0.1 µM): 49.6%
- viability, T/C (second compound 0.316 µM, first compound 0.316 µM): 45.8%
- viability, T/C (second compound 0.316 µM, first compound 1 µM): 38.3%
- viability, T/C (second compound 0.316 µM, first compound 3.16 µM): 24%
- viability, T/C (second compound 0.316 µM, first compound 10 µM): 11.9%
- viability, T/C (second compound 1 µM, first compound 0.0316 µM): 39.2%
- viability, T/C (second compound 1 µM, first compound 0.1 µM): 36.5%
- viability, T/C (second compound 1 µM, first compound 0.316 µM): 31.4%
- viability, T/C (second compound 1 µM, first compound 1 µM): 28.3%
- viability, T/C (second compound 1 µM, first compound 3.16 µM): 20.9%
- viability, T/C (second compound 1 µM, first compound 10 µM): 10.5%

From PubChem BioAssay AID1963967 (Molecular Pharmacology Branch, DTP, NCI, 2024)
